Assay results published in publication PMC11062922 (Nature Chemical Biology, 2023).
Where two headings read alike, the source gives them in different places.

Legend:
[1] = system: CSF1R, FLT3, KIT, PDGFRB, PDGFRA; parameters: method as in chemicalprobes.org; conditions: ref chemicalprobes.org, cited from earlier work
[2] = system: CSF1R, FLT3, KIT, PDGFRB, PDGFRA; parameters: method as in chemicalprobes.org; conditions: 2nd of 4 values listed for 5 targets; ref chemicalprobes.org; read-out: Potency value in cells (IC50); cited from earlier work
ERN1 = target: T1, ERN1 (Homo sapiens, UniProt O75460); parameters: method as in chemicalprobes.org; conditions: truncated human IRE1 alpha WT (AA 469-977); ref chemicalprobes.org; cited from earlier work
T1 construct: endogenous in cells

XBP1 splicing in cells = system: XBP1 splicing in cells; parameters: method as in chemicalprobes.org; conditions: ref chemicalprobes.org; read-out: Potency value in cells (IC50); cited from earlier work
LCK = system: LCK; parameters: method as in chemicalprobes.org; conditions: @ 1 mM ATP, ref chemicalprobes.org; cited from earlier work
[3] = system: Concanavalin A-induced cytokine production in Whole Blood; parameters: method as in chemicalprobes.org; conditions: ref chemicalprobes.org, read-out: Potency value in cells (EC50); cited from earlier work
[4] = target: T2, endogenous kinases and other proteins enriched by Kinobeads from mixed lysates of K-562, COLO-205, MV-4-11, SK-N-BE(2) and OVCAR-8 (Homo sapiens, UniProt Q8NI60); assay: Kinobeads competition binding profiling, two doses (100 nM and 1 µM); conditions: target ADCK3; read-out: apparent Kd;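 further: inhibitor preincubated 45 min at 4 °C in cell lysate, then bead pulldown. Bound protein quantified by label-free mass spectrometry relative to DMSO vehicle control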
T2 construct: to maximize the representation of endogenous proteins; endogenous in cells

[5] = target: T3, endogenous kinases and other proteins enriched by Kinobeads from mixed lysates of K-562, COLO-205, MV-4-11, SK-N-BE(2) and OVCAR-8 (Homo sapiens, UniProt P35916); assay: as above; conditions: target FLT4; read-out: apparent Kd
T3 construct: endogenous in cells

CDK1/cyclinB = target: T4, CDK1/cyclinB (Homo sapiens, UniProt P06493); assay: Recombinant kinase activity assay (ProQinase, FlashPlate radiometric): CDK1/cyclinB; format: biochemical; conditions: Enzyme CDK1_CycB1; Highest Assay Concentration 1.00E-06 M
T4 construct: purchased ProQinase
Method: (§1) Kinase activity assays were performed by ProQinase. Dose-dependent activity inhibition of CDK1/cyclinB, CK2alpha1 and CK2alpha2 were measured using a FlashPlateTM-based radiometric assay at KM (ATP) of the respective kinase.

CK2alpha2 (CSNK2A2) = target: T5, CK2alpha2 (CSNK2A2) (Homo sapiens, UniProt P19784); assay: Recombinant kinase activity assay (ProQinase, FlashPlate radiometric): CK2alpha2; format: biochemical
T5 construct: purchased ProQinase
Method: as §1

CK2alpha1 (CSNK2A1) = target: T6, CK2alpha1 (CSNK2A1) (Homo sapiens, UniProt P68400); assay: Recombinant kinase activity assay (ProQinase, FlashPlate radiometric): CK2alpha1; format: biochemical; conditions: Enzyme CK2alpha1; Highest Assay Concentration 1.00E-06 M; read-out: IC50
T6 construct: purchased ProQinase
Method: as §1

CSNK2A1 (CK2) = target: T7, CSNK2A1 (CK2) (Homo sapiens, UniProt P68400); assay: Kinobeads two-dose competition binding: CK2 (CSNK2A1)
T7 construct: endogenous in cells

CSNK2A2 = CSNK2A2 (Homo sapiens, UniProt P19784); assay: Kinobeads two-dose competition binding: CSNK2A2; parameters: to maximize the representation of endogenous proteins; endogenous in cells; conditions: Kinobeads two-dose screen (binding); read-out: Kdapp CSNK2A2
Description: Briefly, Kinobeads comprise seven broad-spectrum small molecule kinase inhibitors immobilized on Sepharose beads. […]. Compounds of interest are set to compete for target protein binding with Kinobeads in the lysate and the amount of a given protein bound to Kinobeads in the presence of a compound can be quantified relative to a dimethylsulfoxide (DMSO) vehicle control by label-free mass spectrometry. This assay measures the physical interaction of a compound with thousands of endogenous proteins in parallel and, when systematically increasing the concentration of competitor, enables the calculation of an apparent interaction constant ( Kdapp ) for each compound and protein.
Kinobeads pulldown experiments were performed as described previously[13],[14],[17] with minor modification. […] The protein concentration was adjusted to 5 mg ml^−1. Kinase inhibitors were spiked into 0.5 ml of cell lysate at final concentrations of 100 and 1,000 nM (or DMSO, 0.3, 1, 3, 10, 30, 100, 300 and 1,000 nM for full dose experiments). […] Lysates were incubated for 45 min at 4 °C. Subsequently, lysates were incubated with Kinobeads ε (17.5 µl of settled beads) for 30 min at 4 °C. To assess the degree of protein depletion from the lysates by Kinobeads, the flow through of the DMSO control was recovered for a pulldown of pulldown experiment where the lysate was incubated a second time with fresh Kinobeads. Beads were washed in three steps with buffer containing 0.4%, 0.2% and no IGEPAL. Bound proteins were reduced with 50 mM DTT in 8 M Urea, 40 mM Tris-HCl pH 7.4 for 30 min at room temperature. After alkylation with 55 mM chloroacetamide, the urea concentration was reduced to 1–2 M and proteins were digested with trypsin. Acidified peptides were desalted and concentrated using SepPak tC18 µEluation plates (Waters). Samples were frozen, dried by vacuum centrifugation and stored at −20 °C.
Each kinase inhibitor was processed together with all DMSO controls of the same plate. Additionally, each search was supplemented with five high quality DMSO controls for consistent peptide identification and protein grouping. The resultant file (proteinGroups.txt) was used for subsequent filtering, normalization, data visualization and target annotation that was automatically performed by a data processing pipeline built in house that used R (including the ‘drc’ and ‘heatmap’ packages). First, reverse hits, potential contaminants and not quantified proteins in the DMSO control samples were discarded. Protein raw and label-free quantification intensities were normalized to the median DMSO control intensity to obtain relative residual binding intensities for each protein group at every inhibitor concentration and standard deviations of the DMSO control intensity were calculated. IC50 values were estimated based on the following equation IC50=I×100−inhibition/inhibition where [I] is the inhibitor concentration that was used for IC50 calculation and ‘inhibition’ the relative residual binding intensity. […]. Estimated Kdapp values were then calculated by multiplying the estimated IC50 values with a protein-dependent correction factor that was limited to a maximum value of one. The correction factor accounts for the depletion of a target protein from the lysate by Kinobeads. The depletion can be measured by the ratio of the amount of protein captured in two consecutive pulldowns of the same DMSO control lysate. In this study, correction factors were determined in separate experiments using the same lysate mixture and the same bead batch. Correction factors were set to the median of all correction factors. Targets of kinase inhibitors were annotated using the previously published random forest classifier. A training data set was annotated manually. […]

[6] = target: T8, endogenous kinases and other proteins enriched by Kinobeads from mixed cancer cell lysates (Homo sapiens, UniProt P19784); assay: Kinobeads pulldown, full dose-response (eight doses); format: binding; conditions: target CSNK2A2; in nM;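 further: competition with Kinobeads ε after inhibitor preincubation in lysate (5 mg/ml protein) for 45 min at 4 °C, DMSO control, doses 0.3–1,000 nM, label-free LC–MS/MS quantification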
T8 construct: endogenous in cells

[7] = target: T9, endogenous kinases and other proteins enriched by Kinobeads from mixed cancer cell lysates (Homo sapiens, UniProt O75822); assay: as above; format: binding; conditions: target EIF3J; in nM
T9 construct: to maximize the representation of endogenous proteins; endogenous in cells

[8] = target: T10, endogenous kinases and other proteins enriched by Kinobeads from mixed cancer cell lysates (Homo sapiens, UniProt P16083); assay: as above; format: binding; conditions: target NQO2; in nM
T10 construct: endogenous in cells

[9] = target: T11, endogenous kinases and other proteins enriched by Kinobeads from mixed cancer cell lysates (Homo sapiens, UniProt P67870); assay: as above; format: binding; conditions: target CSNK2B; in nM
T11 construct: endogenous in cells

[10] = target: T12, endogenous kinases and other proteins enriched by Kinobeads from mixed cancer cell lysates (Homo sapiens, UniProt Q86TW2); assay: as above; format: binding; conditions: target ADCK1; in nM
T12 construct: endogenous in cells

[11] = target: T13, endogenous kinases and other proteins enriched by Kinobeads from mixed cancer cell lysates (Homo sapiens, UniProt P68400); assay: as above; format: binding; conditions: target CSNK2A1;CSNK2A3; in nM
T13 construct: endogenous in cells

[12] = target: T14, endogenous kinases and other proteins enriched by Kinobeads from mixed cancer cell lysates (Homo sapiens, UniProt Q9Y616); assay: as above; format: binding; conditions: target IRAK3; in nM
T14 construct: endogenous in cells

[13] = system: IL-10 secretion in primary bone marrow-derived dendritic cells (BMDCs); assay: IL-10 cytokine secretion assay (ELISA) in Zymosan-stimulated primary BMDCs; format: cell-based, mouse; conditions: murine BMDCs, inhibitor 30 min before Zymosan stimulation
Method: A subsequent full dose–response experiment confirmed potent and selective binding to SYK ( Kdapp = 58 nM, […] = 0.60; Extended Data Fig. 5a,b). […] One of the effects of Zymosan is that it activates Dectin-1 signaling, in turn activating SYK and leading to increased IL-10 cytokine production (Fig. 3c)[34]. Treatment of cells with the respective SYK inhibitors before Zymosan stimulation indeed led to decreased levels of IL-10 in a dose-dependent fashion (Fig. 3d). […] In line with the cytokine readout, we observed a dose depended reduction of pTyr525/526 indicating SYK inhibition in live cells (Fig. 3e and Extended Data Fig. 5c).
Primary BMDCs were obtained from 9-week-old C57BL/6 mice that were maintained under standard specific pathogen-free conditions. BMDCs were differentiated for 7 days in Roswell Park Memorial Institute medium (Gibco) and granulocyte-macrophage colony-stimulating factor. On day seven, BMDCs were seeded in 96-well plates at 10^5 cells per well in 100 µl of culture medium followed by incubation for 4 h at 37 °C. Subsequently, cells were incubated with SYK inhibitors for 30 min followed by stimulation with Zymosan (final concentration of 50 µg ml^−1; Invivogen) and dispersed in culture medium for 24 h. […] For cytokine secretion quantification, cell culture medium was collected and concentrations of IL-10 in the supernatant were determined using mouse enzyme-linked immunosorbent assay kits (IL-10: Invitrogen) according to the manufacturer’s protocol. Experiments were performed in biological triplicates.

CCN1C(C)(C)CC(Oc2ccc(C(=O)Nc3ccc(NC(=O)Nc4cc(C(C)(C)C)on4)cc3)nc2)CC1(C)C [AC710]
Potency value ([1]; 1st of 4 values listed for 5 targets): 0.0005 µM
Potency value ([1]; 2nd of 4 values listed for 5 targets): 0.0006 µM
Potency value ([1]; 3rd of 4 values listed for 5 targets): 0.001 µM
Potency value ([1]; 4th of 4 values listed for 5 targets): 0.0013 µM
IC50 [2]: 0.002 µM

Cc1ccc2c(NS(=O)(=O)c3ccccc3Cl)cccc2c1Oc1ncccc1-c1ccnc(N[C@H]2CCCNC2)n1 [AMG-18]
Potency value (ERN1): 0.013 µM
IC50 (XBP1 splicing in cells): 0.099 µM

COc1cc(-c2nn([C@H]3CC[C@H](N4CCN(C(C)=O)CC4)CC3)c3ncnc(N)c23)ccc1NC(=O)c1cc2ccccc2n1C [Compound A-770041]
Potency value (LCK): 147 nM @ 1 mM ATP
EC50 [3]: 0.08 µM

CNC(=O)c1cncc(/C=C/c2ccccc2Cl)c1 [GW445017X]
potency estimated from few doses [4]: 0.747 µM

CCS(=O)(=O)c1ccc(OC)c(Nc2ncc(-c3cccc(-c4ccccc4F)c3)o2)c1 [GW678313X]
potency estimated from few doses [5]: 0.423 µM

CONC1=NC(=O)/C(=C/c2ccc3ncccc3c2)S1 [RO4613269-000]
IC50 (CDK1/cyclinB): > 1 µM
IC50 (CK2alpha2 (CSNK2A2); Enzyme CK2alpha2, Highest Assay Concentration 1.00E-06 M, read-out: IC50): 0.0653 µM
IC50 (CK2alpha2 (CSNK2A2); recombinant kinase activity assay at KM (ATP), read-out: Activity IC50 CSNK2A2): 0.065 µM
IC50 (CK2alpha1 (CSNK2A1)): 0.116 µM
potency estimated from few doses (CSNK2A1 (CK2); Kinobeads two-dose screen (binding), read-out: Kdapp CK2 (CSNK2A1)): 0.058 µM
CATDSCK2 (CSNK2A1 (CK2); selectivity score from Kinobeads two-dose data): 0.86
potency estimated from few doses (CSNK2A2): 0.057 µM

c1cn2cc(-c3ccc4cn[nH]c4c3)nc(Nc3ccc(N4CCOCC4)cc3)c2n1 [entospletinib]
EC50 [6]: 1314.91
EC50 [7]: 1609.61
EC50 [8]: 295.4
EC50 [9]: 940.697
EC50 [10]: 16437.9
EC50 [11]: 1585.19
EC50 [12]: 4708.37
IL-10 levels [13]: dose-dependent reduction
